Laboratory results published in patent publication US8999957B2, “Heterocyclic compounds as ERK inhibitors” (Merck Sharp & Dohme Corp., priority 2010, dated 2015).
“And” between values parts separate entries of the source, which are not always exact repeats. Equal values may be shown once.

Target: fully phosphorylated, mouse aERK2 enzyme (Mus musculus (Mouse), UniProt P63085)
Assay: Active ERK2 (aERK) IMAP-FP assay, condition 2
Type: biochemical
Details: aERK assay condition 2, 30 uM ATP; read-out: aERK IC50
Summary of the method: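 Phosphorylation by fully phosphorylated mouse ERK2 ran 40-45 min, then quenched with IMAP beads (1:1000) in binding buffer; fluorescence polarization read after 30 min binding equilibration.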

fully phosphorylated, mouse aERK2 enzyme, sequence (P63085 whole entry): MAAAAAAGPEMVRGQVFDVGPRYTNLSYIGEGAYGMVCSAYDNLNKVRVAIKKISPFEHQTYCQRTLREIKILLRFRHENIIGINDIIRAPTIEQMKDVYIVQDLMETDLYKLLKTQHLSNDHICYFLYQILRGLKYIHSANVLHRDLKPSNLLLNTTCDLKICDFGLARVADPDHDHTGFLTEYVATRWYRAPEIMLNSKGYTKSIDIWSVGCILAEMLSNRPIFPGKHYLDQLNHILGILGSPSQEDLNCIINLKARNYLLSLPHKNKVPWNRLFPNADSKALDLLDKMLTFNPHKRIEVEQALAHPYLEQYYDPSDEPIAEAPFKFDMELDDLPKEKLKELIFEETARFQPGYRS

| IC50 [nM] | Compound |
| --- | --- |
| 451 | CNC(=O)C(c1c(F)cccc1F)N1CCC[C@@H](NC(=O)c2ccc3[nH]nc(-c4ccncc4)c3c2)C1 (single isomer, unassigned) [drawing 505, N-((R)-1-((R or S)-1-(2,6-difluorophenyl)-2-(methylamino)-2-oxoethyl)-piperidin-3-yl)-3-(pyridin-4-yl)-1H-indazole-5-carboxamide] |
| 8.4 | COc1cccc(F)c1CN1CCC[C@@H](NC(=O)c2ccc3[nH]nc(C4=CCS(=O)(=O)CC4)c3c2)C1 [3-(1,1-dioxido-3,6-dihydro-2H-thiopyran-4-yl)-N-[(3R)-1-(2-fluoro-6-methoxy-benzyl)piperidin-3-yl]-1H-indazole-5-carboxamide] |

Same assay, conditions: active ERK2; read-out: aErk2 Ic50

| IC50 | Compound |
| --- | --- |
| 37.8 nM | COc1cccc(F)c1CN1C[C@H](NC(=O)c2ccc3[nH]nc(-c4ccnc(C)c4)c3c2)CC[C@H]1C(=O)N(C)C [N-[(3R,6S)-6-(dimethylcarbamoyl)-1-(2-fluoro-6-methoxybenzyl)piperidin-3-yl]-3-(2-methylpyridin-4-yl)-1H-indazole-5-carboxamide] |
| 61.2 nM | COc1cccc(F)c1CN1C[C@H](NC(=O)c2ccc3[nH]nc(-c4ccnnc4)c3c2)CC[C@H]1C(=O)N1CC(F)(F)C1 [N-[(3R,6S)-6-[(3,3-difluoroazetidin-1-yl)carbonyl]-1-(2-fluoro-6-methoxybenzyl)-piperidin-3-yl]-3-pyridazin-4-yl-1H-indazole-5-carboxamide] |
| 21.8 nM | CCN(C)C(=O)[C@@H]1CC[C@@H](NC(=O)c2ccc3[nH]nc(-c4ccnc(C)c4)c3c2)CN1Cc1c(F)cccc1OC [N-[(3R,6S)-6-[ethyl(methyl)carbamoyl]-1-(2-fluoro-6-methoxybenzyl)piperidin-3-yl]-3-(2-methylpyridin-4-yl)-1H-indazole-5-carboxamide] |
| 1.7 nM | COc1cccc(F)c1CN1C[C@H](NC(=O)c2ccc3[nH]nc(-c4ccncc4)c3c2)CC[C@H]1C(N)=O [N-[(3R,6S)-6-carbamoyl-1-(2-fluoro-6-methoxybenzyl)piperidin-3-yl]-3-pyridin-4-yl-1H-indazole-5-carboxamide] |
| 16.2 nM | CCN(CC)C(=O)[C@@H]1CC[C@@H](NC(=O)c2ccc3[nH]nc(-c4ccnc(C)c4)c3c2)CN1Cc1c(F)cccc1OC [N-[(3R,6S)-6-(diethylcarbamoyl)-1-(2-fluoro-6-methoxybenzyl)piperidin-3-yl]-3-(2-methylpyridin-4-yl)-1H-indazole-5-carboxamide] |
| 11.8 nM | COc1cccc(F)c1CN1C[C@H](NC(=O)c2ccc3[nH]nc(-c4ccnc(C)c4)c3c2)CC[C@H]1C(=O)NCCCCl [N-[(3R,6S)-6-[(3-chloropropyl)carbamoyl]-1-(2-fluoro-6-methoxybenzyl)piperidin-3-yl]-3-(2-methylpyridin-4-yl)-1H-indazole-5-carboxamide] |

Continued, compound first:

| Compound | IC50 |
| --- | --- |
| COc1cccc(F)c1CN1C[C@@H](NC(=O)c2ccc3[nH]nc(-c4ccnc(C)c4)c3c2)CC[C@@H]1C(=O)N1CC(O[Si](C)(C)C(C)(C)C)CO1 (stereo in doubt) [N-[(3S,6R)-6-[(4-{[tert-butyl(dimethyl)silyl]oxy}isoxazolidin-2-yl)carbonyl]-1-(2-fluoro-6-methoxybenzyl)-piperidin-3-yl]-3-(2-methylpyridin-4-yl)-1H-indazole-5-carboxamide] | 72.5 nM and 144 nM |
| CCN(CC)C(=O)[C@@H]1CC[C@@H](NC(=O)c2ccc3[nH]nc(-c4ccc5nn(C)cc5c4)c3c2)CN1Cc1c(F)cccc1OC | 39.4 nM |
| COc1cccc(F)c1CN1C[C@H](NC(=O)c2ccc3[nH]nc(-c4ccc5nn(C)cc5c4)c3c2)CC[C@H]1C(=O)N(C)C | 15.9 nM |
| N-{(3R,6S)-1-(2-fluoro-6-methoxybenzyl)-6- [(2-methylhydrazino)carbonyl]piperidin-3- yl}-3-(2-methylpyridin-4-yl)-1H-indazole-5- carboxamide | 20.2 nM and 30 nM |
| COc1cccc(F)c1CN1C[C@H](NC(=O)c2ccc3[nH]nc(-c4ccnc(C)c4)c3c2)CC[C@H]1C(=O)NN [N-[(3R,6S)-1-(2-fluoro-6-methoxybenzyl)-6-(hydrazinocarbonyl)piperidin-3-yl]-3-(2-methylpyridin-4-yl)-1H-indazole-5-carboxamide] | 1 nM |
